Measurements as given in PMC6214487 (Journal of drug design and research, 2018).
Read-outs that look alike come from different tables or passages of the source.

How the values were obtained:
[1] = test system: HIV-1 92RW025; test: Replication of primary isolate in PBMCs; format: cell-based; settings: read-out: IC50 HIV-1 92RW025 Clade A; primary human PBMCs
[2] = test system: HIV-1 JR-CSF; test: Replication of primary isolate in PBMCs; format: cell-based; settings: read-out: IC50 HIV-1 JR-CSF Clade B; primary human PBMCs
[3] = test system: HIV-1 93MW965; test: Replication of primary isolate in PBMCs; format: cell-based; settings: read-out: IC50 HIV-1 93MW965 Clade C; primary human PBMCs
[4] = test system: HIV-1 isolates from subtypes A, B, and C; test: Replication in PBMCs, summary over the three isolates tested; format: cell-based; settings: read-out: Median IC50
[5] = test system: HIV-1 pseudovirus CA wild-type; test: organism not typed; format: cell-based; settings: for IC50: read-out: IC50, Wild-type virus
[6] = test system: HIV-1 pseudovirus CA N57A; test: organism not typed; format: cell-based; settings: for IC50: read-out: IC50, CA N57A virus
[7] = test system: HIV-1 pseudovirus CA Q63A; test: organism not typed; format: cell-based; settings: for IC50: read-out: IC50, CA Q63A virus
[8] = test system: HIV-1 pseudovirus CA K70A; test: organism not typed; format: cell-based; settings: for IC50: read-out: IC50, CA K70A virus
[9] = test system: HIV-1 pseudovirus CA N74D; test: organism not typed; format: cell-based; settings: for IC50: read-out: IC50, CA N74D virus
[10] = test system: HIV-1 pseudovirus CA P90A; test: organism not typed; format: cell-based; settings: for IC50: read-out: IC50, CA P90A virus
[11] = test system: VSV-G pseudotyped HIV-1 in TZM-bl cells; format: cell-based
[12] = test system: PBMCs; test: Toxicity to PBMCs, MTS assay; settings: for Therapeutic Index (CC50/IC50): calculated using the median IC50 across all three isolates
[13] = target: purified recombinant RT (Human immunodeficiency virus type 1 group M subtype B, UniProt P04585); test: Colorimetric reverse transcriptase assay kit; settings: CX06 15 μM, PF-74 1.5 μM, TMC278 1 nM, relative to DMSO
[14] = test system: HIV-1JR-FL envelope pseudotyped virus; test: Single-round infection assay, early-stage events; settings: compound present at infection of target cells, luciferase
[15] = test system: 293T cells; format: cell-based, human
[16] = test system: U87.CD4. cells; format: cell-based, human
[17] = test system: HIV-1JR-FL Envpseudotyped viruses; test: Viral production by p24 quantitation; format: cell-based; settings: 20 μM, relative to DMSO
[18] = test system: AMLV Envpseudotyped HIV-1; format: cell-based; settings: single round infection assay
[19] = test system: VSV-pseudotyped HIV-1 virus; format: cell-based
[20] = test system: HIV-1JR-FLEnv infected U87.CD4.CCR5 cells; test: Q-PCR analysis of viral DNA; format: cell-based; settings: CX06 15 μM
[21] = target: HIV-1 CA (Human immunodeficiency virus type 1 group M subtype B, UniProt P12493); settings: capsid 30 μM, compound 50 μM, compared to DMSO
[22] = Toxicity to PBMCs, MTS assay; settings: human, primary peripheral blood mononuclear cells (PBMCs)
[23] = target: HIV-1 NL4-3 disulfide stabilized CA hexamer (HIV-1 NL4-3); test: SPR
[24] = Human immunodeficiency virus 1, PBMC

For `Cc1[nH]c2ccccc2c1CC(=O)N[C@@H](Cc1ccccc1)C(=O)N(C)c1ccccc1` [PF-74, reference compound], the IC50 [1] was 1.5 ± 0.9 µM, the IC50 [2] was 0.6 ± 0.2 µM and the IC50 [3] was 0.6 ± 0.1 µM. For the same molecule, the IC50 ([4]; over the three isolates tested, PBMCs) was 0.9 ± 0.5 µM, the IC50 ([5]; single-round infection) was 0.22 ± 0.05 µM and the IC50 ([6]; single-round infection) was 0.25 ± 0.04 µM. For the same molecule, the IC50 ([7]; single-round infection) was 0.4 ± 0.05 µM, the IC50 ([8]; single-round infection) was 0.25 ± 0.08 µM and the IC50 ([9]; single-round infection) was 0.5 ± 0.1 µM. For the same molecule, the IC50 ([10]; single-round infection) was 0.21 ± 0.04 µM, the “Nuclear import of INsfGFP complexes” value [11] was “efficiently inhibited the appearance of INsfGFP spots in the nucleus” and the CC50 ([12]; MTS assay, PBMCs) was 90.5 ± 5.9 µM. The “Effect on RT activity in vitro” value [13] was “no effect on RT activity” and the “Effect on early-stage events, infectivity of target cells” value [14] was “dual-stage inhibition profile”.
For `CCn1ncc(CC(=O)NC(Cc2ccccc2)C(=O)N(C)c2ccccc2)c1C(F)F` (stereo not shown) [CX06, 2-(2-(5-(difluoromethyl)-1-ethyl-1H-pyrazol-4-yl)acetamido)-N-methyl-N,3-diphenylpropanamide], the IC50 [4, 24] was 5.9 ± 1 µM, the “Fold increase, Wild-type virus” value ([5]; IC50 relative to wild-type) was 1 and the IC50 [5] was 3.1 ± 0.5 µM. The “Fold increase, CA N57A virus” value ([6]; IC50 relative to wild-type) was 1.4, the IC50 [6] was 4.3 ± 0.5 µM and the “Fold increase, CA Q63A virus” value ([7]; IC50 relative to wild-type) was 6.9. For the same molecule, the IC50 [7] was 21.4 ± 1.4 µM, the “Fold increase, CA K70A virus” value ([8]; IC50 relative to wild-type) was 1.03 and the IC50 [8] was 3.2 ± 0.3 µM. The “Fold increase, CA N74D virus” value ([9]; IC50 relative to wild-type) was 0.8, the IC50 [9] was 2.4 ± 0.7 µM and the “Fold increase, CA P90A virus” value ([10]; IC50 relative to wild-type) was 1. The IC50 [10] was 3.1 ± 0.5 µM, the Cytotoxicity [15] was “not cytotoxic” and the Cytotoxicity [16] was “not cytotoxic”. The “Viral production, p24 content” value [17] was “decreasing the amount of virus released from the cells”, the “Inhibition of AMLV Env pseudotyped HIV-1 infection” value [18] was “almost identical potency as when the HIV-1JR-FLEnv was used” and the “Time of addition at which compound is effective” value [19] was at most 6 hours post-infection. For the same molecule, the 2-LTR circles ([20]; 24 h) was “significantly affected”, the “Early RT products (RU5)” value ([20]; 48 h) was “slightly diminished” and the “Integrated pro-virus (Alu-PCR)” value ([20]; 48 h) was “significantly affected”. The “Late RT products (U5Ψ)” value ([20]; 48 h) was “significantly affected”, the “Nuclear import of INsfGFP complexes” value [11] was “efficiently inhibited the appearance of INsfGFP spots in the nucleus” and the “Effect on capsid assembly, turbidity at 350 nm” value [21] was “reduced the multimerization of HIV-1 CA”. For the same molecule, the CC50 [22] was over 100 µM, the “Therapeutic Index (CC50/IC50)” value [12] was over 17.0 and the “Effect on RT activity in vitro” value [13] was “no effect on RT activity”.
With `CN(C(=O)C(Cc1ccccc1)NC(=O)Cc1cnn(C(F)F)c1)c1ccccc1` (stereo not shown) [CX04, 2-(2-(1-(difluoromethyl)-1H-pyrazol-4-yl)acetamido)-N-methyl-N,3-diphenylpropanamide] the IC50 [4, 24] was 17.1 ± 2.7 µM, the CC50 [22] was over 100 µM and the “Therapeutic Index (CC50/IC50)” value [12] was over 5.84.
Molecule “NUP153 1407-1423 peptide (from UniProt P49790 1407-1423)” has a Kd [23] of 202 µM.
For `Cc1ccnc2c1NC(=O)c1cccnc1N2C1CC1` [Nevirapine], the “Nuclear import of INsfGFP complexes” value [11] was “without effect”.
In the case of `CN(C(=O)C(Cc1ccccc1)NC(=O)Cc1cnn(C)c1C(F)(F)F)c1ccccc1` (stereo not shown) [CX05, N-methyl-2-(2-(1-methyl-5-(trifluoromethyl)-1H-pyrazol-4-yl)acetamido)-N,3-diphenylpropanamide], the IC50 [4, 24] is reported as 18 ± 4.6 µM, the CC50 [22] is reported as over 100 µM and the “Therapeutic Index (CC50/IC50)” value [12] is reported as over 5.58.
In the case of `CC(C)c1nc2c(n1CC(=O)NC(Cc1ccccc1)C(=O)N(C)c1ccccc1)CCCC2` (stereo not shown) [CX03, 2-(2-(2-isopropyl-4,5,6,7-tetrahydro-1H-benzo[d]imidazol-1-yl)acetamido)-N-methyl-N,3-diphenylpropanamide], the IC50 [4, 24] is reported as 5.9 ± 0.9 µM, the CC50 [22] is reported as over 100 µM and the “Therapeutic Index (CC50/IC50)” value [12] is reported as over 16.9.
